Results reported in patent US9700546B2, “Trivalent chromium compounds, compositions and methods of use” (INTERHEALTH NUTRACEUTICALS, INC., priority 2006, dated 2017).
Like-named read-outs stand apart in the source and are kept apart here. Values belong to the compound of their own block, whether it stands above or below them.

Key:
[1] = cited from earlier work; for chromium absorbed (average): men and women
[2] = typical; cited from earlier work
Obese Zucker rats [3] = details: rat, in vivo
Obese Zucker rats [4] = test: In vivo assessment in obese Zucker rats: body weight and food intake; details: obese Zucker rats, daily 400 μg Cr(III)/kg, mean; for Food Intake 5 wks: at 5 weeks; for Food Intake 7 wks: at 7 weeks
Obese Zucker rats [5] = test: In vivo assessment in obese Zucker rats: blood lipid profile (total cholesterol, triglycerides, HDL); details: daily 400 μg Cr(III)/kg, 8 weeks, mean
Obese Zucker rats [6] = test: In vivo assessment in obese Zucker rats: other vascular inflammation markers (cAMP, TNFα, IL-6, OxyDNA); details: obese Zucker rats, daily 400 μg Cr(III)/kg, 8 weeks, mean ± SE; for OxyDNA: oxidative DNA damage
Obese Zucker rats [7] = test: In vivo assessment in obese Zucker rats: vascular inflammation markers (MCP-1, CRP, RBP-4, leptin, ICAM, adiponectin); details: obese Zucker rats, daily 400 μg Cr(III)/kg, 8 weeks, mean; for Adiponectin / CRP / ICAM / MCP-1: plasma, ELISA
Obese Zucker rats [8] = test: In vivo assessment in obese Zucker rats: key biological parameters (fasting glucose, HbA1c, vitamin C, GSH, RBC lipid peroxidation); details: obese Zucker rats, daily 400 μg Cr(III)/kg, 8 weeks, mean; for RBC Lipid Peroxidase: malondialdehyde by thiobarbituric acid; for Fasting Glucose: fasted overnight; for Vitamin C: plasma
Obese Zucker rats [9] = test: In vivo assessment in obese Zucker rats: clinical chemistry (AP, BUN, CRT, AST, ALT); details: obese Zucker rats; mean ± SE
yeast = details: Cooper et al. 1984; cited from earlier work
insulin = details: in vitro; cited from earlier work

Compound: [Cl][Cr]([Cl])[Cl] [chromium chloride]
chromium absorbed (average) [1]: 0.4 µg
absorbed by the body [2]: less than one

AP (Alkaline phosphatase) (Obese Zucker rats [3]): 36.40 u/L
BUN (Blood Urea Nitrogen) (Obese Zucker rats [3]): 18.50 mg/dL
CRT (Creatinine) (Obese Zucker rats [3]): 0.42 mg/dL
Total Bilirubin (Obese Zucker rats [3]): 0.00 mg/dL
Compound: N[C@@H](CS)C(=O)O [Cys, Cysteine, reference compound]
ALT (Alanine Aminotransferease) (Obese Zucker rats [3]): 119.20 u/L
AST (Aspartate Aminotransferase) (Obese Zucker rats [3]): 218.20 u/L
Food Intake 5 wks (Obese Zucker rats [4]): 39.40 g/day
Food Intake 7 wks (Obese Zucker rats [4]): 39.87 g/day
HDL (Obese Zucker rats [5]): 68.26 mg/dL
Total Cholesterol (Obese Zucker rats [5]): 183.58 mg/dL
Triglyceride (Obese Zucker rats [5]): 503.57 mg/dL
IL-6 (Obese Zucker rats [6]): 95.33 ± 2.33 pg/mL
TNFα (Obese Zucker rats [6]): 24.28 ± 3.84 pg/mL
cAMP (Obese Zucker rats [6]): 32.94 ± 1.79 pmol/mL
OxyDNA (Obese Zucker rats [6]): 54.56 ± 5.69 ng/mL
Leptin (Obese Zucker rats [7]): 477.65 pg/mL
RBP-4 (Obese Zucker rats [7]): 50915.00 ng/mL
Adiponectin (Obese Zucker rats [7]): 11532.37 ng/mL
CRP (Obese Zucker rats [7]): 551.39 ng/mL
ICAM (Obese Zucker rats [7]): 18512.88 pg/mL
RBC Lipid Peroxidase (Obese Zucker rats [8]): 2.34 nmol/mL
Fasting Glucose (Obese Zucker rats [8]): 483.49 mg/dL
GSH (Obese Zucker rats [8]): 4.70 µmol/g
HbA1c (Obese Zucker rats [8]): 15.17%
Vitamin C (Obese Zucker rats [8]): 0.13 mg %

Compound: chromium polynicotinate
chromium absorbed (average) [1]: 0.2 µg

Compound: Chromium Histidinate [CrHis, reference compound]
chromium absorbed (average) [1]: 3.1 µg
absorbed better than chromium picolinate ([1]; relative to chromium picolinate): at least 50%
ALT (Alanine Aminotransferease) (Obese Zucker rats [9]): 168.25 u/L
AP (Alkaline phosphatase) (Obese Zucker rats [9]): 35.25 u/L
AST (Aspartate Aminotransferase) (Obese Zucker rats [9]): 248.00 u/L
Anion Gap (Obese Zucker rats [9]): 29.75
BUN (Blood Urea Nitrogen) (Obese Zucker rats [9]): 19.50 mg/dL
BUN/CRT Ratio (Obese Zucker rats [9]): 48.75
CRT (Creatinine) (Obese Zucker rats [9]): 0.40 mg/dL
Total Bilirubin (Obese Zucker rats [9]): 0.10 mg/dL
HDL (Obese Zucker rats [5]): 66.90 mg/dL
Total Chol/HDL (Obese Zucker rats [5]): 2.86 ratio
Total Cholesterol (Obese Zucker rats [5]): 189.62 mg/dL
Triglyceride (Obese Zucker rats [5]): 503.93 mg/dL
IL-6 (Obese Zucker rats [6]): 91.98 ± 8.19 pg/mL
TNFα (Obese Zucker rats [6]): 24.72 ± 5.24 pg/mL
cAMP (Obese Zucker rats [6]): 28.07 ± 2.83 pmol/mL
OxyDNA (Obese Zucker rats [6]): 57.72 ± 2.86 ng/mL
Leptin (Obese Zucker rats [7]): 436.96 pg/mL
RBP-4 (Obese Zucker rats [7]): 51112.60 ng/mL
Adiponectin (Obese Zucker rats [7]): 11455.87 ng/mL
CRP (Obese Zucker rats [7]): 710.26 ng/mL
MCP-1 (Obese Zucker rats [7]): 2974.79 pg/mL
RBC Lipid Peroxidase (Obese Zucker rats [8]): 1.91 nmol/mL
Fasting Glucose (Obese Zucker rats [8]): 592.01 mg/dL
GSH (Obese Zucker rats [8]): 4.68 µmol/g
HbA1c (Obese Zucker rats [8]): 15.89%

Compound: N=C(N)NCCC[C@H](N)C(=O)O [Arg, Arginine, reference compound]
ALT (Alanine Aminotransferease) (Obese Zucker rats [3]): 179.20 u/L
AP (Alkaline phosphatase) (Obese Zucker rats [3]): 35.50 u/L
AST (Aspartate Aminotransferase) (Obese Zucker rats [3]): 276.80 u/L
BUN (Blood Urea Nitrogen) (Obese Zucker rats [3]): 21.00 mg/dL
CRT (Creatinine) (Obese Zucker rats [3]): 0.40 mg/dL
Total Bilirubin (Obese Zucker rats [3]): 0.00 mg/dL
Food Intake 5 wks (Obese Zucker rats [4]): 37.73 g/day
Food Intake 7 wks (Obese Zucker rats [4]): 46.80 g/day
HDL (Obese Zucker rats [5]): 68.69 mg/dL
Total Chol/HDL (Obese Zucker rats [5]): 2.86 ratio
Total Cholesterol (Obese Zucker rats [5]): 173.96 mg/dL
Triglyceride (Obese Zucker rats [5]): 485.74 mg/dL
IL-6 (Obese Zucker rats [6]): 97.80 ± 0.93 pg/mL
TNFα (Obese Zucker rats [6]): 25.45 ± 0.93 pg/mL
cAMP (Obese Zucker rats [6]): 34.98 ± 0.92 pmol/mL
OxyDNA (Obese Zucker rats [6]): 62.90 ± 2.71 ng/mL
Leptin (Obese Zucker rats [7]): 431.72 pg/mL
RBP-4 (Obese Zucker rats [7]): 47211.67 ng/mL
Adiponectin (Obese Zucker rats [7]): 9958.63 ng/mL
CRP (Obese Zucker rats [7]): 617.34 ng/mL
ICAM (Obese Zucker rats [7]): 17940.91 pg/mL
MCP-1 (Obese Zucker rats [7]): 3878.85 pg/mL
RBC Lipid Peroxidase (Obese Zucker rats [8]): 2.23 nmol/mL
Fasting Glucose (Obese Zucker rats [8]): 446.60 mg/dL
GSH (Obese Zucker rats [8]): 4.77 µmol/g
HbA1c (Obese Zucker rats [8]): 15.88%
Vitamin C (Obese Zucker rats [8]): 0.14 mg %

AP (Alkaline phosphatase) (Obese Zucker rats [3]): 40.06 u/L
Anion Gap (Obese Zucker rats [3]): 29.61
BUN (Blood Urea Nitrogen) (Obese Zucker rats [3]): 20.22 mg/dL
BUN/CRT Ratio (Obese Zucker rats [3]): 49.72
CRT (Creatinine) (Obese Zucker rats [3]): 0.41 mg/dL
Total Bilirubin (Obese Zucker rats [3]): 0.07 mg/dL
Compound: Chromium Picolinate [CrP, reference compound]
ALT (Alanine Aminotransferease) (Obese Zucker rats [3]): 179.78 u/L
AST (Aspartate Aminotransferase) (Obese Zucker rats [3]): 362.44 u/L
chromium absorbed (average) [1]: 1.8 µg
Food Intake 5 wks (Obese Zucker rats [4]): 35.85 g/day
Food Intake 7 wks (Obese Zucker rats [4]): 40.79 g/day
HDL (Obese Zucker rats [5]): 66.01 mg/dL
Total Chol/HDL (Obese Zucker rats [5]): 3.02 ratio
Total Cholesterol (Obese Zucker rats [5]): 191.80 mg/dL
Triglyceride (Obese Zucker rats [5]): 625.35 mg/dL
IL-6 (Obese Zucker rats [6]): 94.13 ± 2.47 pg/mL
TNFα (Obese Zucker rats [6]): 33.66 ± 5.27 pg/mL
cAMP (Obese Zucker rats [6]): 29.17 ± 2.00 pmol/mL
OxyDNA (Obese Zucker rats [6]): 49.02 ± 2.31 ng/mL
Leptin (Obese Zucker rats [7]): 399.55 pg/mL
RBP-4 (Obese Zucker rats [7]): 49236.91 ng/mL
Adiponectin (Obese Zucker rats [7]): 11229.84 ng/mL
CRP (Obese Zucker rats [7]): 654.78 ng/mL
ICAM (Obese Zucker rats [7]): 20428.47 pg/mL
MCP-1 (Obese Zucker rats [7]): 4549.99 pg/mL
RBC Lipid Peroxidase (Obese Zucker rats [8]): 2.05 nmol/mL
Fasting Glucose (Obese Zucker rats [8]): 527.28 mg/dL
GSH (Obese Zucker rats [8]): 4.84 µmol/g
HbA1c (Obese Zucker rats [8]): 15.54%
Vitamin C (Obese Zucker rats [8]): 0.15 mg %

Compound: NC(=O)CCC(N)C(=O)[O-].NC(=O)CCC(N)C(=O)[O-].O.O.[Cr+3] (stereo not drawn) [Cr(glutamine)2(H2O)2^+]
glucose tolerance factor activity in yeast assay (yeast): significant activity

Compound: O=C(O)c1cccnc1 [Niacin, reference compound]
potentiation of the action of insulin (insulin): virtually no effect
Food Intake 5 wks (Obese Zucker rats [4]): 37.92 g/day
Food Intake 7 wks (Obese Zucker rats [4]): 39.67 g/day
ALT (Alanine Aminotransferease) (Obese Zucker rats [9]): 126.17 u/L
BUN (Blood Urea Nitrogen) (Obese Zucker rats [9]): 19.33 mg/dL
CRT (Creatinine) (Obese Zucker rats [9]): 0.40 mg/dL
HDL (Obese Zucker rats [5]): 70.33 mg/dL
Total Cholesterol (Obese Zucker rats [5]): 192.17 mg/dL
Triglyceride (Obese Zucker rats [5]): 486.67 mg/dL
IL-6 (Obese Zucker rats [6]): 93.76 ± 1.60 pg/mL
cAMP (Obese Zucker rats [6]): 34.27 ± 1.47 pmol/mL
OxyDNA (Obese Zucker rats [6]): 47.31 ± 2.78 ng/mL
Leptin (Obese Zucker rats [7]): 363.96 pg/mL
RBP-4 (Obese Zucker rats [7]): 53945.00 ng/mL
Adiponectin (Obese Zucker rats [7]): 8872.00 ng/mL
CRP (Obese Zucker rats [7]): 548.27 ng/mL
ICAM (Obese Zucker rats [7]): 16855.83 pg/mL
MCP-1 (Obese Zucker rats [7]): 1365.66 pg/mL
RBC Lipid Peroxidase (Obese Zucker rats [8]): 1.82 nmol/mL
Fasting Glucose (Obese Zucker rats [8]): 543.00 mg/dL
GSH (Obese Zucker rats [8]): 5.32 µmol/g
HbA1c (Obese Zucker rats [8]): 15.60%
Vitamin C (Obese Zucker rats [8]): 0.15 mg %

Compound: NC(C[S-])C(=O)[O-].NC(C[S-])C(=O)[O-].[Cr+3] (stereo not drawn) [Cr(cysteine)2^−]
glucose tolerance factor activity in yeast assay (yeast): not active

Compound: Cr-nicotinic acid-glycine
glucose tolerance factor activity in yeast assay (yeast): significant activity
